According to the NIST ThermoML archive (doi:10.1016/j.jct.2017.07.016):

Assay: xn = mol fraction of the nth substance listed
Details: 96.7 kPa, Liquid; for viscosity: Capillary tube (Ostwald / Ubbelohde) method; for mass density: Vibrating tube method

CCCCCCn1cc[n+](C)c1.[Cl-] [1-hexyl-3-methylimidazolium chloride] + C[S+](C)[O-]
Details	mass density [kg/m3]	viscosity [mPa·s]
303.15 K, x1 = 0.141	1078.5	6.523
303.15 K, x1 = 0.278	1068.64	23.07
303.15 K, x1 = 0.366	1063.06	54.37
303.15 K, x1 = 0.472	1057.13	134.28
303.15 K, x1 = 0.606	1050.34	343.91
303.15 K, x1 = 0.773	1043.22	806.64
303.15 K, x1 = 0.878	1039.66	2111.1
303.15 K, x1 = 1	1036.07	5718.5
308.15 K, x1 = 0.141	1074.26	5.691
308.15 K, x1 = 0.278	1064.88	18.67
308.15 K, x1 = 0.366	1059.5	41.74
308.15 K, x1 = 0.472	1053.74	100.12
308.15 K, x1 = 0.606	1047.15	242.91
308.15 K, x1 = 0.773	1040.19	554.65
308.15 K, x1 = 0.878	1036.71	1348.9
308.15 K, x1 = 1	1033.22	3430.8
313.15 K, x1 = 0.141	1070.08	4.951
313.15 K, x1 = 0.278	1061.15	15.46
313.15 K, x1 = 0.366	1055.94	33.33
313.15 K, x1 = 0.472	1050.36	76.29
313.15 K, x1 = 0.606	1043.96	176.38
313.15 K, x1 = 0.773	1037.17	384.99
313.15 K, x1 = 0.878	1033.77	895.04
313.15 K, x1 = 1	1030.38	2146.1
318.15 K, x1 = 0.141	1065.87	4.385
318.15 K, x1 = 0.278	1057.41	12.95
318.15 K, x1 = 0.366	1052.4	26.72
318.15 K, x1 = 0.472	1046.99	58.57
318.15 K, x1 = 0.606	1040.76	130.64
318.15 K, x1 = 0.773	1034.12	274.48
318.15 K, x1 = 0.878	1030.8	607.51
318.15 K, x1 = 1	1027.56	1390.4
323.15 K, x1 = 0.141	1061.67	3.892
323.15 K, x1 = 0.278	1053.68	10.99
323.15 K, x1 = 0.366	1048.87	21.9
323.15 K, x1 = 0.472	1043.65	46.32
323.15 K, x1 = 0.606	1037.58	98.7
323.15 K, x1 = 0.773	1031.12	201.06
323.15 K, x1 = 0.878	1027.89	425.84
323.15 K, x1 = 1	1024.75	928.1
328.15 K, x1 = 0.141	–	3.493
328.15 K, x1 = 0.278	–	9.439
328.15 K, x1 = 0.366	–	18.22
328.15 K, x1 = 0.472	–	37.12
328.15 K, x1 = 0.606	–	76.27
328.15 K, x1 = 0.773	–	150.51
328.15 K, x1 = 0.878	–	306.13
328.15 K, x1 = 1	–	638.79
